Data reported in US20060069132A1, “Azolecarboxamide herbicides” (priority 2004, published 2006).

Assays:
[1] = system: pigweed; experiment: Test B pre-/postemergence herbicide test; format: in vivo, Amaranthus retroflexus; details: for Plant response rating (0 to 100 scale), Pigweed: 0 is no effect; for Plant response rating (0 to 100 scale), Pigweed / Plant response rating, Pigweed: preemergence; for Pigweed plant response rating: postemergence; for Plant response rating, Pigweed: 0 = no effect, 100 = complete control
Summary of the method: (§1)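 Evaluation is visual, comparing treated with control plants on a scale where 0 means no effect and 100 means full control. Treatments were preemergence, or postemergence on seedlings 2–18 cm tall, and held 13–15 days in the greenhouse.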

[2] = system: wild oat; experiment: Test B postemergence herbicide test; format: in vivo, Avena fatua; details: postemergence
Summary of the method: (§2)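 Scale 0–100: zero equals no visible effect, 100 complete control, judged by eye relative to controls. Timing: 13 to 15 days in greenhouse post-treatment. Growth stage at spraying: two leaves (paddy) or one to four leaves, 2–18 cm (postemergence).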

[3] = system: small flower umbrella sedge; experiment: Test B flooded paddy test; format: in vivo, Cyperus difformis; details: 1000 g ai/ha, scale 0 to 100 (0 no effect, 100 complete control)
Summary of the method: (§3)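 Paddy species grown to the 2-leaf stage under flooding; blackgrass sprayed postemergence at 2–18 cm (1- to 4-leaf stage). Plants kept in a greenhouse for 13 to 15 days, then visually rated against controls on 0 (no effect) to 100 (complete control).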

[4] = system: large crabgrass; experiment: Test B pre-/postemergence herbicide test; format: in vivo, Digitaria sanguinalis; details: for Plant response rating (0 to 100 scale), Crabgrass, Large: 0 is no effect; for Plant response rating (0 to 100 scale), Crabgrass, Large / Plant response rating, Crabgrass, Large: preemergence; for Crabgrass, Large plant response rating: postemergence; for Plant response rating, Crabgrass, Large: 0 = no effect, 100 = complete control
Summary of the method: as §1

[5] = system: rice; experiment: Test B flooded paddy test; format: in vivo, Oryza sativa; details: 1000 g ai/ha, scale 0 to 100 (0 no effect, 100 complete control)
Summary of the method: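 Each value is a visual 0–100 response rating taken against controls 13 to 15 days after treatment in the greenhouse. Plants received formulated chemical postemergence at the 1- to 4-leaf stage or, in flooded paddy, at the 2-leaf stage.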

[6] = system: giant foxtail; experiment: Test B pre-/postemergence herbicide test; format: in vivo, Setaria faberi; details: for Plant response rating (0 to 100 scale), Foxtail, Giant: 0 is no effect; for Plant response rating (0 to 100 scale), Foxtail, Giant / Plant response rating, Foxtail, Giant: preemergence; for Foxtail, Giant plant response rating: postemergence; for Plant response rating, Foxtail, Giant: 0 = no effect, 100 = complete control
Summary of the method: as §1

[7] = system: velvetleaf; experiment: Test B pre-/postemergence herbicide test; format: in vivo, Abutilon theophrasti; details: for Plant response rating (0 to 100 scale), Velvetleaf: 0 is no effect; for Velvetleaf plant response rating: postemergence
Summary of the method: as §1

[8] = system: lambsquarters; experiment: Test B pre-/postemergence herbicide test; format: in vivo, Chenopodium album; details: for Plant response rating (0 to 100 scale), Lambsquarters: 0 is no effect; for Plant response rating (0 to 100 scale), Lambsquarters / Plant response rating, Lambsquarters: preemergence; for Lambsquarters plant response rating: postemergence; for Plant response rating, Lambsquarters: 0 = no effect, 100 = complete control
Summary of the method: as §1

[9] = system: barnyardgrass; experiment: Test B flooded paddy test; format: in vivo, Echinochloa crus-galli; details: 1000 g ai/ha, scale 0 to 100 (0 no effect, 100 complete control)
Summary of the method: as §3

[10] = system: morningglory; experiment: Test B pre-/postemergence herbicide test; format: in vivo, Ipomoea coccinea; details: for Plant response rating (0 to 100 scale), Morningglory: 0 is no effect; for Plant response rating (0 to 100 scale), Morningglory / Plant response rating, Morningglory: preemergence; for Morningglory plant response rating: postemergence; for Plant response rating, Morningglory: 0 = no effect, 100 = complete control
Summary of the method: (§4)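 Test chemicals in a non-phytotoxic solvent mixture with surfactant were applied preemergence to seeded species and postemergence to plants 2-18 cm tall (1- to 4-leaf stage); rice and barnyardgrass were also tested in a flooded paddy at the 2-leaf stage. Visual rating versus controls after 13-15 days in greenhouse, scale 0 (no effect) to 100 (complete control).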

[11] = system: wheat; experiment: Test B postemergence herbicide test; format: in vivo, Triticum aestivum; design: key to Wheat plant response rating: 0 = no effect, 100 = complete control; details: postemergence
Summary of the method: as §2

[12] = system: barnyardgrass; experiment: Test B pre-/postemergence herbicide test; format: in vivo, Echinochloa crus-galli; details: for Plant response rating (0 to 100 scale), Barnyardgrass: 0 is no effect; for Plant response rating (0 to 100 scale), Barnyardgrass / Plant response rating, Barnyardgrass: preemergence; for Barnyardgrass plant response rating: postemergence; for Plant response rating, Barnyardgrass: 0 = no effect, 100 = complete control
Summary of the method: as §4

[13] = system: cocklebur; experiment: Test B pre-/postemergence herbicide test; format: in vivo, Xanthium strumarium; details: for Plant response rating (0 to 100 scale), Cocklebur: 0 is no effect; for Plant response rating (0 to 100 scale), Cocklebur / Plant response rating, Cocklebur: preemergence; for Cocklebur plant response rating: postemergence; for Plant response rating, Cocklebur: 0 = no effect, 100 = complete control
Summary of the method: as §4

[14] = system: Surinam grass; experiment: Test B pre-/postemergence herbicide test; format: in vivo, Urochloa decumbens; details: for Plant response rating (0 to 100 scale), Surinam Grass: 0 is no effect; for Plant response rating (0 to 100 scale), Surinam Grass / Plant response rating, Surinam Grass: preemergence; for Surinam Grass plant response rating: postemergence; for Plant response rating, Surinam Grass: 0 = no effect, 100 = complete control
Summary of the method: as §1

[15] = system: ducksalad; experiment: Test B flooded paddy test; format: in vivo, Heteranthera limosa; details: 1000 g ai/ha, scale 0 to 100 (0 no effect, 100 complete control)
Summary of the method: as §3

[16] = system: blackgrass; experiment: Test B postemergence herbicide test; format: in vivo, Alopecurus myosuroides; details: postemergence
Summary of the method: as §3

[17] = system: rice; experiment: Test B pre-/postemergence herbicide test; format: in vivo, Oryza sativa; details: preemergence; for Plant response rating (0 to 100 scale), Rice: 125 g ai/ha, 0 is no effect, 100 is complete control; for Plant response rating, Rice: 500 g ai/ha, visual rating, 0 = no effect, 100 = complete control
Summary of the method: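 Plants compared with untreated controls 13–15 days post-treatment and given a visual 0–100 injury score. Applications: preemergence to seeds; postemergence at 1- to 4-leaf (2–18 cm); paddy species flooded, 2-leaf stage. Vehicle non-phytotoxic, surfactant included.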

[18] = system: corn; experiment: Test B pre-/postemergence herbicide test; format: in vivo, Zea mays; details: for Plant response rating (0 to 100 scale), Corn: 0 is no effect; for Plant response rating (0 to 100 scale), Corn / Plant response rating, Corn: preemergence; for Corn plant response rating: postemergence; for Plant response rating, Corn: 0 = no effect, 100 = complete control
Summary of the method: as §1

[19] = 125 g ai/ha, 100 is complete control
[20] = 125 g ai/ha, visual rating, scale 0 (no effect) to 100 (complete control)
[21] = 500 g ai/ha, scale 0 to 100, 0 is no effect, 100 is complete control
[22] = 125 g ai/ha, 100 is complete control, preemergence

SMILES: CCc1cn(C(C)(C)C)nc1C(=O)Nc1cccc(C(=O)N(C)C)n1 [Compound 330]
- Plant response rating (0 to 100 scale), Pigweed [1, 19]: 0
- Pigweed plant response rating [1, 20]: 0
- Plant response rating, Pigweed ([1]; 500 g ai/ha, visual rating): 0
- Pigweed plant response rating [1, 21]: 0
- Oat, Wild plant response rating [2, 20]: 0
- Oat, Wild plant response rating [2, 21]: 20
- Sedge, Umbrella plant response rating [3]: 0
- Plant response rating (0 to 100 scale), Crabgrass, Large [4, 19]: 0
- Crabgrass, Large plant response rating [4, 20]: 0
- Plant response rating, Crabgrass, Large ([4]; 500 g ai/ha, visual rating): 0
- Crabgrass, Large plant response rating [4, 21]: 0
- Rice plant response rating [5]: 0
- Plant response rating (0 to 100 scale), Foxtail, Giant [6, 19]: 0
- Foxtail, Giant plant response rating [6, 20]: 0
- Plant response rating, Foxtail, Giant ([6]; 500 g ai/ha, visual rating): 0
- Foxtail, Giant plant response rating [6, 21]: 0
- Plant response rating (0 to 100 scale), Velvetleaf [7, 22]: 0
- Velvetleaf plant response rating [7, 20]: 0
- Plant response rating, Velvetleaf ([7]; 500 g ai/ha, visual rating, 0 = no effect, 100 = complete control, preemergence): 0
- Velvetleaf plant response rating [7, 21]: 10
- Plant response rating (0 to 100 scale), Lambsquarters [8, 19]: 0
- Lambsquarters plant response rating [8, 20]: 0
- Plant response rating, Lambsquarters ([8]; 500 g ai/ha, visual rating): 0
- Lambsquarters plant response rating [8, 21]: 10
- Barnyardgrass plant response rating [9]: 0
- Plant response rating (0 to 100 scale), Morningglory [10, 19]: 0
- Morningglory plant response rating [10, 20]: 10
- Plant response rating, Morningglory ([10]; 500 g ai/ha, visual rating): 0
- Morningglory plant response rating [10, 21]: 10
- Wheat plant response rating [11, 20]: 0
- Wheat plant response rating [11, 21]: 0
- Plant response rating (0 to 100 scale), Barnyardgrass [12, 19]: 0
- Barnyardgrass plant response rating [12, 20]: 0
- Plant response rating, Barnyardgrass ([12]; 500 g ai/ha, visual rating): 0
- Barnyardgrass plant response rating [12, 21]: 0
- Plant response rating (0 to 100 scale), Cocklebur [13, 19]: 0
- Cocklebur plant response rating [13, 20]: 0
- Plant response rating, Cocklebur ([13]; 500 g ai/ha, visual rating): 0
- Cocklebur plant response rating [13, 21]: 0
- Plant response rating (0 to 100 scale), Surinam Grass [14, 19]: 0
- Surinam Grass plant response rating [14, 20]: 0
- Plant response rating, Surinam Grass ([14]; 500 g ai/ha, visual rating): 0
- Surinam Grass plant response rating [14, 21]: 0
- Ducksalad plant response rating [15]: 0
- Blackgrass plant response rating [16, 20]: 0
- Blackgrass plant response rating [16, 21]: 0
- Plant response rating (0 to 100 scale), Rice [17]: 0
- Plant response rating, Rice [17]: 0
- Plant response rating (0 to 100 scale), Corn [18, 19]: 0
- Corn plant response rating [18, 20]: 0
- Plant response rating, Corn ([18]; 500 g ai/ha, visual rating): 0
- Corn plant response rating [18, 21]: 0

SMILES: CCNC(=O)c1cccc(NC(=O)c2cc(C(C)(C)C)n[nH]2)c1 [Compound 351]
- Plant response rating (0 to 100 scale), Pigweed [1, 19]: 0
- Pigweed plant response rating [1, 20]: 0
- Plant response rating, Pigweed ([1]; 500 g ai/ha, visual rating): 0
- Pigweed plant response rating [1, 21]: 50
- Oat, Wild plant response rating [2, 20]: 0
- Oat, Wild plant response rating [2, 21]: 0
- Sedge, Umbrella plant response rating [3]: 0
- Plant response rating (0 to 100 scale), Crabgrass, Large [4, 19]: 0
- Crabgrass, Large plant response rating [4, 20]: 0
- Plant response rating, Crabgrass, Large ([4]; 500 g ai/ha, visual rating): 0
- Crabgrass, Large plant response rating [4, 21]: 10
- Rice plant response rating [5]: 0
- Plant response rating (0 to 100 scale), Foxtail, Giant [6, 19]: 0
- Foxtail, Giant plant response rating [6, 20]: 0
- Plant response rating, Foxtail, Giant ([6]; 500 g ai/ha, visual rating): 0
- Foxtail, Giant plant response rating [6, 21]: 0
- Plant response rating (0 to 100 scale), Velvetleaf [7, 22]: 0
- Velvetleaf plant response rating [7, 20]: 0
- Velvetleaf plant response rating [7, 21]: 0
- Plant response rating (0 to 100 scale), Lambsquarters [8, 19]: 0
- Lambsquarters plant response rating [8, 20]: 0
- Plant response rating, Lambsquarters ([8]; 500 g ai/ha, visual rating): 0
- Lambsquarters plant response rating [8, 21]: 10
- Barnyardgrass plant response rating [9]: 0
- Plant response rating (0 to 100 scale), Morningglory [10, 19]: 0
- Morningglory plant response rating [10, 20]: 0
- Plant response rating, Morningglory ([10]; 500 g ai/ha, visual rating): 0
- Morningglory plant response rating [10, 21]: 0
- Wheat plant response rating [11, 20]: 0
- Wheat plant response rating [11, 21]: 0
- Plant response rating (0 to 100 scale), Barnyardgrass [12, 19]: 0
- Barnyardgrass plant response rating [12, 20]: 0
- Plant response rating, Barnyardgrass ([12]; 500 g ai/ha, visual rating): 0
- Barnyardgrass plant response rating [12, 21]: 0
- Plant response rating (0 to 100 scale), Cocklebur [13, 19]: 0
- Cocklebur plant response rating [13, 20]: 0
- Plant response rating, Cocklebur ([13]; 500 g ai/ha, visual rating): 0
- Cocklebur plant response rating [13, 21]: 0
- Plant response rating (0 to 100 scale), Surinam Grass [14, 19]: 0
- Surinam Grass plant response rating [14, 20]: 0
- Plant response rating, Surinam Grass ([14]; 500 g ai/ha, visual rating): 0
- Surinam Grass plant response rating [14, 21]: 0
- Ducksalad plant response rating [15]: 0
- Blackgrass plant response rating [16, 20]: 0
- Blackgrass plant response rating [16, 21]: 0
- Plant response rating (0 to 100 scale), Rice [17]: 0
- Plant response rating, Rice [17]: 0
- Plant response rating (0 to 100 scale), Corn [18, 19]: 0
- Corn plant response rating [18, 20]: 0
- Plant response rating, Corn ([18]; 500 g ai/ha, visual rating): 0
- Corn plant response rating [18, 21]: 10
